Experiments:
Granule cells = experiment: N2 anoxia in granule cells, viability by MTT; assay type: cell-based, rat; settings: for protection against endogenous glutamate-induced neurotoxicity under anoxic conditions: anoxia in N2 chamber; for MTT O.D. (570-630): N2 anoxia in absence of Mg2+; for MTT O.D. (570-630) / MTT O.D. as % of Control (+ MG^2+): MTT after 24 hours; for MTT O.D. as % of Control (+ MG^2+): N2 anoxia
Procedure: Pretreatment was performed with LIGA 20 and 21 for 10 minutes, and with GM1 for 60 minutes. The cells are washed with serum and placed in anoxic conditions in the absence of Mg^+2 for 5 hours and replaced in the culture medium. Cell viability was measured 24 hours after with MTT.
(§1) 1.a. Primary cultures of cerebral granule cells from 8-day-old Sprague Dawley rats (Zivic Miller) [Gallo V. et al., Proc. Natl. Acad. Sci. USA 79, 7919-7923 (1982)]. These cultures contain >90% of granule cells, <5% of GABAergic neurons and <5% of glial cells [Vaccarino F. M. et al., J. Neurosci. 7, 65-76 (1987)]. The cells were used for the experiments on the 8th and 9th days of culture.
Effect of N-dichloro acetyl lyso GM1 following cell anoxia (in N2 chamber) on protection from endogenous glutamate-induced neurotoxicity. Cell viability is assessed by colorimetry after 24 hours (MTT stains only live cells).

new-born rat = experiment: NMDA-induced neurotoxicity in new-born rat (mortality); assay type: in vivo; settings: for mortality (deceased/treated) / relative mortality (% of treated): up to 5 days; for protection from mortality following i.c.v. injection of NMDA: s.c., 1 hour before and immediately after NMDA
Procedure: Newborn rats (7 days old) weighing about 13 g are injected with 25 nmol NMDA i.c.v. Under these conditions the excitotoxin induces a decrease of 28% in weight of the injected hemisphere and a mortality rate of 53.6%.
Administration of the compounds: injection method and parameters observed. […] The compounds were solubilized in PBS. The N-dichloro acetyl lyso GM1 and N-monochloro acetyl lyso GM1 derivatives were tested in comparison to magnesium sulfate, MK-801 (a non-competitive […] of the NMDA receptor) [G. McDonald et al., Eur. J. Pharmacol. 140: 153-157 (1987)] and kinurenic acid [P. Andiné, Neuro-science Letters, 90: 208-212 (1988)] which is capable of diminishing brain damage. Mortality was assessed 5 days after MNDA injection.

PKC [1] = experiment: Translocation of PKC induced by glutamate: [3H]-phorbol ester binding on intact cells; assay type: cell-based, rat; settings: for inhibition of PKC translocation, cotreatment and prolonged incubation: cotreatment 35 minutes with glutamate, then prolonged exposure (35 minutes)
Procedure: as §1
(§2) On the 8th and 9th days of culture, concentrations varying between 7 and 100 μM of the following substances are added: N-dichloro acetyl lyso GM1, N-monochloro acetyl lyso GM1, GT1b, GM1. More particularly, the monolayers of granule cells are preincubated with these compounds in Locke's solution (1 ml) for 120 minutes (or for periods of time varying between 0 and 120 minutes) at 37° C. Gangliosides and derivatives are previously dissolved and subsequently diluted, if necessary, in methanol: H2O/95:5. Aliquots of the solution are dried in a N2 current and gathered with a suitable volume of Locke's solution until the final concentration is reached.
1.d. Translocation of PKC induced by glutamate: assessment of [3H]-phorbol ester binding on intact cells.
The effects of binding of [3H]-phorbol ester are assessed under two different types of experimental conditions: […]
[…] After cotreatment the cells-are washed and [^3H]-PDBu binding is assessed in the presence of Mg^+2. Granule cells are grown on discs measuring 35 mm in diameter and then washed and incubated with Locke's solution containing 4-B-[^3H]-phorbol-12, 13-dibutyrate [^3H]-P(Bto)2, 12.5 Ci/mmol (1 Ci=37 GBq; New England Nuclear), in 0.1% fatty acid-free bovine albumin serum (Sigma Chemical Co.). […] The binding is constant for over one hour. After incubation the cells are washed 3 times with cold Locke's solution and suspended with NaOH 0.1M. The aliquots of suspension are used for protein determination [Lowry O. H. et al., J. Biol. Chem. 193, 256-275 (1951)]. Non-specific binding is assessed in the presence of 2 μM phorbol 12-tetradecanoate 13-acetate (PTA).

cerebral granule cells [2] = experiment: Glutamate-induced neurotoxicity in primary cultures of cerebral granule cells (cell survival); assay type: cell-based, rat; settings: for protection of cells from neurotoxic effect of glutamate, cotreatment: cotreatment 15 minutes with glutamate 50 μM; for protection from neurotoxic effect, cotreatment and prolonged incubation: cotreatment 35 minutes with glutamate, then prolonged exposure (35 minutes); for reversal of neurotoxic effect of glutamate by post-treatment: post-treatment 20 minutes, after glutamate administered intermittently; for prevention of glutamate-induced neurotoxicity: pretreatment for 2 hours; for concentration required for maximum protective effect: pretreatment
Procedure: as §1, §2
1.c. Glutamate-induced neurotoxicity.
The neurotoxic effect of glutamate was assessed under various experimental conditions:
Influence of incubation time ([…]) of the substances before exposure to glutamate: intact cells are preincubated with N-dichloro acetyl lyso GM1, N-monochloro acetyl lyso GM1 (7 μM) and GT1b (60 μM) at 37° C. After removal of excess compound by washing, the cells are incubated with 50 μM of glutamate in the absence of Mg+2 for 15 minutes at room temperature after which the cells are washed three more times and then replaced in the medium. Cell survival is assessed after 24 hours by histochemical techniques, or after […] staining which gives green fluorescence to live cells and red to non-living cells.
Influence of the time interval between pre-treatment with ganglioside derivatives or gangliosides themselves and exposure to glutamate: intact granule cells are preincubated for 2 hours at 37° C. with N-dichloro acetyl lyso GM1 (7 μM) GT1b and GM1 (100 μM). Excess compound is removed by washing and the cells exposed to 50 μM of glutamate (in the absence of Mg^+2) for 15 minutes after various time intervals (1, 2, 4, 6, 12, 18, 24 and 48 hours).
Effect of simultaneous treatment with glutamate and gangliosides: intact granule cells are treated (15 and 35 minutes) with 50 μM of glutamate and the gangliosides N-dichloro acetyl lyso GM1 (7 μM), GT1b and GM1 (100 μM) . In the first type of experiment (cotreatment for 15 minutes) the excess compound is removed by washing, and then cell survival is assessed according to the described method. In the second type of experiment (cotreatment for […]) the cotreatment is prolonged for another 35 minutes of exposure to gangliosides.
Effect of N-dichloro acetyl lyso GM1 following intermittent exposure to glutamate: granule cells are exposed intermittently to glutamate and treated with N-dichloro acetyl lyso GM1 (7 μM) for 20 minutes (in the absence of Mg2+). The excess product is removed by washing.

[3] = system: Mouse neuroblastoma cells (N2A); experiment: 3H Tdr in N2A cells; assay type: cell-based
[4] = system: Mouse neuroblastoma cells (N2A); experiment: Neuritogenic activity in N2A cells: morphology, % of cells with neurites; assay type: cell-based
Procedure: Mouse neuroblastoma cells (N2A) at the 180th passage are placed in wells at a concentration of 10,000 cells per well (COSTAR-24). The next day the medium was substituted with 350 μl of DMEM+P/G+10% FCS.
All compounds are dissolved in chloroform/methanol 2:1 dried in N2 current and resuspended in DMEM+P/G+10% FCS. The number of neurites is assessed 24 hours later.

[5] = system: Mouse neuroblastoma cells (N2A); experiment: MTT in N2A cells; assay type: cell-based
PKC [6] = settings: exposure of cerebral granule cells; literature reports; cited from earlier work
cerebral granule cells [7] = settings: literature reports; cited from earlier work
[8] = 200 nMoli/animal sc, 1 hr before and immediately after NMDA 25 nMoli i.c.v.
[9] = cotreatment with glutamate 50 μM, 7 μM
[10] = 75 nMoli/animal (2 mg/kg) i.p., 1 hr before and immediately after NMDA
[11] = preincubated 2 hours at 100 μM, glutamate 50 μM

## CCCCCCCCCCCCCC=CC(O)C(COC1OC(CO)C(OC2OC(CO)C(OC3OC(CO)C(O)C(OC4OC(CO)C(O)C(O)C4O)C3NC(C)=O)C(OC3(C(=O)O)CC(O)C(NC(C)=O)C(C(O)C(O)CO)O3)C2O)C(O)C1O)NC(=O)C(Cl)Cl (stereo not drawn) [LIGA 20, N-dichloroacetyl Lyso GM1]
Granule cells
  protection against endogenous glutamate-induced neurotoxicity under anoxic conditions: active
Granule cells; pretreated 5 μm, 10 min
  MTT O.D. (570-630): 0.163 ± 0.012 O.D.
  MTT O.D. as % of Control (+ MG^2+): 112%
new-born rat; [8]
  mortality (deceased/treated): 1/8
  relative mortality (% of treated): 12.5%
new-born rat
  protection from mortality following i.c.v. injection of NMDA: protected
PKC [1]; 7 μM
  inhibition of PKC translocation, cotreatment and prolonged incubation: effective
PKC [1]; [9]
  inhibition of PKC translocation induced by glutamate, cotreatment: inhibits
  time of maximum activity in inhibiting PKC translocation: 30 min
Cerebral granule cells [2]; 7 μM vs 60 μM
  concentration for maximum effect, times less than that of GT1b: more than 8 times
Cerebral granule cells [2]; 7 μM, glutamate 50 μM
  preincubation time after which protection is evident: 5 min
  prevention of glutamate-induced neurotoxicity: almost totally prevents
Cerebral granule cells [2]; 7 μM
  protection of cells from neurotoxic effect of glutamate, cotreatment: effective
  protection from neurotoxic effect, cotreatment and prolonged incubation: effective
  reversal of neurotoxic effect of glutamate by post-treatment: prevents
Cerebral granule cells [2]; 7 μM, listed as N-dichloro acetyl lyso GM1
  reversal of neurotoxic effect of glutamate by post-treatment: active
Cerebral granule cells [2]; preincubated 2 hours at 7 μM, glutamate 50 μM
  persistence of protective effect on glutamate-induced neurotoxicity after removal of the medium: at least 24 hours
Cerebral granule cells [2]; glutamate 50 μM
  concentration required for maximum protective effect: 7 µM

## CCCCCCCCCCCCC/C=C/[C@@H](O)[C@H](CO[C@@H]1O[C@H](CO)[C@@H](O[C@@H]2O[C@H](CO)[C@H](O[C@@H]3O[C@H](CO)[C@H](O)[C@H](O[C@@H]4O[C@H](CO)[C@H](O)[C@H](O)[C@H]4O)[C@H]3NC(C)=O)[C@H](O[C@]3(C(=O)O)C[C@H](O)[C@@H](NC(C)=O)[C@H]([C@H](O)[C@H](O)CO)O3)[C@H]2O)[C@H](O)[C@H]1O)NC(=O)CCl [LIGA 21, N-Monochloroacetyl Lyso GM1]
[3]; 1 × 10^−4 M
  ^3H Tdr. (48 hr) n = 3: 14256 ± 1594
[3]; 5 × 10^−5 M
  ^3H Tdr. (48 hr) n = 3: 36016 ± 5030
[3]; 5 × 10^−6 M
  ^3H Tdr. (48 hr) n = 3: 43035 ± 487
Granule cells
  protection against endogenous glutamate-induced neurotoxicity under anoxic conditions: active
Granule cells; pretreated 5 μm, 10 min
  MTT O.D. (570-630): 0.152 ± 0.013 O.D.
  MTT O.D. as % of Control (+ MG^2+): 105%
[4]; 1 × 10^−4 M
  Morphology (24 hr) % of cells with neurites: 80-90%
[4]; 5 × 10^−5 M
  Morphology (24 hr) % of cells with neurites: 80-90%
[4]; 5 × 10^−6 M
  Morphology (24 hr) % of cells with neurites: <5%
new-born rat; [8]
  mortality (deceased/treated): 0/8
  relative mortality (% of treated): 0%
new-born rat
  protection from mortality following i.c.v. injection of NMDA: protected
[5]; 1 × 10^−4 M
  MTT (48 hr) n = 3: 0.158 ± 0.01
[5]; 5 × 10^−5 M
  MTT (48 hr) n = 3: 0.243 ± 0.008
[5]; 5 × 10^−6 M
  MTT (48 hr) n = 3: 0.324 ± 0.01
Cerebral granule cells [2]; glutamate-induced neurotoxicity
  concentration range of protection: ~10 µM

## C[C@]12N[C@H](Cc3ccccc31)c1ccccc12 [MK 801, reference compound]
new-born rat; [10]
  mortality (deceased/treated): 6/16
  relative mortality (% of treated): 37%

## N′-monochloro acetyl lyso GM1 [LIGA 22]
[4]; 1 × 10^−4 M
  Morphology (24 hr) % of cells with neurites: <5%

## monosialosyl-N-tetraglycosyl-ceramide [GM1, reference compound]
PKC [6]
  translocation and activation of PKC induced by glutamate: inhibits
[3]; 1 × 10^−4 M
  ^3H Tdr. (48 hr) n = 3: 40834 ± 1885
Cerebral granule cells [7]
  protection from glutamate-induced cell damage: offer protection
Granule cells; pretreated 100 μM, 60 min
  MTT O.D. (570-630): 0.160 ± 0.010 O.D.
  MTT O.D. as % of Control (+ MG^2+): 110%
[4]; 1 × 10^−4 M
  Morphology (24 hr) % of cells with neurites: 70-80%
PKC [1]; 100 μM
  inhibition of PKC translocation, cotreatment and prolonged incubation: effective
[5]; 1 × 10^−4 M
  MTT (48 hr) n = 3: 0.259 ± 0.007
Cerebral granule cells [2]; 100 μM
  protection of cells from neurotoxic effect of glutamate, cotreatment: is not
  protection from neurotoxic effect, cotreatment and prolonged incubation: effective
Cerebral granule cells [2]; [11]
  persistence of protective effect on glutamate-induced neurotoxicity after removal of the medium: no more than 1 hours

## trisialosyl-N-tetraglycosylceramide [GT1b, reference compound]
PKC [6]
  translocation and activation of PKC induced by glutamate: inhibits
Cerebral granule cells [7]
  protection from glutamate-induced cell damage: offer protection
PKC [1]; 100 μM
  inhibition of PKC translocation, cotreatment and prolonged incubation: effective
Cerebral granule cells [2]; 60 μM, glutamate 50 μM
  incubation time after which protection is significant: 60 min
  prevention of glutamate-induced neurotoxicity: almost totally prevents
Cerebral granule cells [2]; 100 μM
  protection of cells from neurotoxic effect of glutamate, cotreatment: is not
  protection from neurotoxic effect, cotreatment and prolonged incubation: effective
Cerebral granule cells [2]; [11]
  persistence of protective effect on glutamate-induced neurotoxicity after removal of the medium: 4 h
Cerebral granule cells [2]; glutamate 50 μM
  concentration required for maximum protective effect: 60 µM
